The text below walks through data of patent publication US12685741B2, “N-acetylneuraminic acid compositions and methods of use” (LifeScience AS, priority 2017, dated 2026).

SMILES strings stand for the structures.

The conditions of data set [1]: cited from earlier work.
The conditions of data set [2]: cited from earlier work. This is another data set of the same source.
The test system of a further data set is herpes. The experiment in a line: Oral NANA in a subject with chronic herpes outbreaks. It counts as in vivo, human. Particulars: daily dose of 3 grams, outbreaks approximately every other week for 10 years before. As for the experimental part:
A daily dose of 3 grams NANA was administered to a subject suffering from chronic herpes outbreaks which had occurred approximately every other week for 10 years.

For data set [3] the following is noted: rat, in vivo, cited from earlier work.

Usually NOAEL stands for the highest dose or exposure tested at which no adverse effect was seen.

Regarding `CC(=O)N[C@H]1[C@H]([C@H](O)[C@H](O)CO)OC(O)(C(=O)O)C[C@@H]1O` (stereo partly drawn) [NANA, N-acetylneuraminic acid], the solubility in water result in data set [1] is given as “Easily soluble in water”. Moreover, in data set [2] (in vivo), the absorption after ingestion result is “rapidly absorbed”. In addition, the excretion result in data set [2] (via urine) was “quickly excreted”. Besides, in the data set on herpes, the herpes outbreaks entry is “has not had a herpes outbreak for two months”. Moreover, in data set [3] (po), the toxic effects entry is recorded as “No toxic effects have been detected”. In data set [3], the NOAEL was 974 mg/kg body weight/day.
